Results taken from patent publication US20240041820A1, “SENOTHERAPEUTIC COMPOUND” (BIONEXA S.R.L., priority 2020, published 2024).
Entries after “also recorded” stand apart in the source; their conditions may differ.

Legend:
Format in all cases: cell-based
[1] = tested on: human WS1 fibroblast cells; experiment: Senolytic activity on doxorubicin-induced senescent WS1 fibroblasts (crystal violet survival)
Method: (§1) The successful conversion to the senescent cell phenotype was confirmed by morphological changes (flattening and cell enlargement) and positivity for lysosomal beta-galactosidase (β-GAL). The SA-β-GAL (senescence-associated β-GAL) senescence assay was performed with the SA-β-Gal Staining Kit (Cell Signaling Technology, Inc., Danvers, MA). Briefly, after fixation with […] for 15 min at room temperature, senescent cells were quantified by calculating the percentage of SA-β-GAL positive (blue stained) cells present in culture by examining 200 cells per well with the phase contrast microscope EVOS XL Cell Imaging System (Thermo Fisher; objective, 40X).
Senolytic activity on senescent human cells (in 96-well plates) was evaluated after specific treatments (for 72 h), including vehicle (DMSO; negative control), quercetin (Que; positive control) or different compounds according to the ‘invention bearing identification codes as fully illustrated also in patent application WO 2019/008537 A1, filed on May 7, 2017 in the name of Vera Salus Ricerca SrI (FIGS. 1, 2 and 3) from page 91 to page 106 and in the relative Figures. At the end of the treatments, cell survival was quantified by crystal violet staining. Briefly, cells were fixed with paraformaldehyde (4%) in PBS for 20 min, washed (2X in distilled water) and stained with 1% crystal violet (for 20 min). After further washing with water (3X), 100 μl of acetic acid (10%) were added per well and the absorbance (λ=590 nm) measured with a Synergy spectrophotometer (AHSI). Each experiment was carried out in quadruplicate and repeated at least three times, on three different days. Senolytic activity was expressed as % of senescent cells eliminated with respect to the control condition (DMSO). Results were presented as means±SEM (standard error of mean) and related analyzes were performed with GraphPadPrism® 6.0 software (CA, USA).
In a first step, the senolytic activities of the compounds according to the invention were investigated in human WS1 fibroblast cells (normal fibroblasts of cutaneous origin, ATCC® CRL-1502™). WS1 cell senescence was induced with 100 nM doxorubicin (24 h) and 12 days of recovery, while the senolytic activity was quantified after treatments with vehicle (DMSO), quercetin (Que, 20 μM), quercetin (20 μM) plus dasatinib (DAS, 200 nM; other positive control) or 18 distinct compounds according to the invention used at a concentration of 20 μM, alone (FIG. 1a) or in the presence of 200 nM dasatinib (FIG. 1b).

[2] = tested on: human intestinal epithelium cells HCT116; experiment: Senolytic activity on doxorubicin-induced senescent HCT116 cells (crystal violet survival); settings: senescent HCT116, 1-60 μM, 72 h (FIG. 2a)
Method: as §1
(§2) Senolytic activity on senescent human cells (in 96-well plates) was evaluated after specific treatments (for 72 h), including vehicle (DMSO; negative control), quercetin (Que; positive control) or different compounds according to the ‘invention bearing identification codes as fully illustrated also in patent application WO 2019/008537 A1, filed on May 7, 2017 in the name of Vera Salus Ricerca SrI (FIGS. 1, 2 and 3) from page 91 to page 106 and in the relative Figures. At the end of the treatments, cell survival was quantified by crystal violet staining. […] After further washing with water (3X), 100 μl of acetic acid (10%) were added per well and the absorbance (λ=590 nm) measured with a Synergy spectrophotometer (AHSI). […]

[3] = tested on: human renal epithelial cells 786-0; experiment: Senolytic activity on doxorubicin-induced senescent 786-0 cells (crystal violet survival); settings: senescent 786-0, 1-60 μM, 72 h (FIG. 2b)
Method: as §1, §2

[4] = tested on: human pancreatic epithelial cells PANC-1; experiment: Senolytic activity on doxorubicin-induced senescent PANC-1 cells (crystal violet survival); settings: senescent PANC-1, 1-60 μM, 72 h (FIG. 3a)
Method: as §1, §2

[5] = tested on: human hepatic epithelial cells HepG2; experiment: Senolytic activity on doxorubicin-induced senescent HepG2 cells (crystal violet survival); settings: senescent HepG2, 1-60 μM, 72 h (FIG. 3b)
Method: as §1, §2

[6] = tested on: human lung epithelium cells A549; experiment: Senolytic activity on doxorubicin-induced senescent A549 cells (crystal violet survival); settings: senescent A549, 1-60 μM, 72 h (FIG. 3c)
Method: as §1, §2

## COc1ccc(-c2ccc(C(=O)NCCOCCOc3c(-c4ccc(O)c(O)c4)oc4cc(O)cc(O)c4c3=O)cc2)cc1 [29g]
[1]; senescent WS1, 20 μM alone vs quercetin 20 μM, 72 h (FIG. 1a)
  senolytic effect relative to that of quercetin: ~3 times
[1]; senescent WS1, 20 μM alone, 72 h (FIG. 1a)
  senolytic effect in words, compared with the other compounds / treatments: maximum senolytic effects; also recorded: higher senolytic effect than all the other compounds
[1]; senescent WS1, compound 20 μM alone vs quercetin 20 μM + dasatinib 200 nM, 72 h
  senolytic effect of compound alone compared with the combination quercetin plus dasatinib: greater than the combination of quercetin plus dasatinib
[1]; senescent WS1, compound 20 μM alone, 72 h (FIG. 1a)
  senolytic effect (% of senescent cells eliminated with respect to DMSO control): ~60%
[1]; senescent WS1, compound 20 μM in the presence of 200 nM dasatinib vs quercetin 20 μM + dasatinib 200 nM, 72 h (FIG. 1b)
  senolytic action compared with quercetin plus dasatinib: more effective
[2]
  senolytic activity compared with quercetin: significantly higher than quercetin
[3]
  senolytic activity compared with quercetin: significantly higher than quercetin
[4]
  senolytic activity compared with quercetin: significantly higher than quercetin
[5]
  senolytic activity compared with quercetin: significantly higher than quercetin
[6]
  senolytic activity compared with quercetin: significantly higher than quercetin
